Measurements published in article PMC8865862 (Journal of Inflammation Research, 2022).

Molecular target: Caspase 1 (CASP1) (Homo sapiens, UniProt P29466)
Experiment: live-cell GFP caspase-1
Assay type: cell-based

Caspase 1 (CASP1), sequence (P29466 whole entry): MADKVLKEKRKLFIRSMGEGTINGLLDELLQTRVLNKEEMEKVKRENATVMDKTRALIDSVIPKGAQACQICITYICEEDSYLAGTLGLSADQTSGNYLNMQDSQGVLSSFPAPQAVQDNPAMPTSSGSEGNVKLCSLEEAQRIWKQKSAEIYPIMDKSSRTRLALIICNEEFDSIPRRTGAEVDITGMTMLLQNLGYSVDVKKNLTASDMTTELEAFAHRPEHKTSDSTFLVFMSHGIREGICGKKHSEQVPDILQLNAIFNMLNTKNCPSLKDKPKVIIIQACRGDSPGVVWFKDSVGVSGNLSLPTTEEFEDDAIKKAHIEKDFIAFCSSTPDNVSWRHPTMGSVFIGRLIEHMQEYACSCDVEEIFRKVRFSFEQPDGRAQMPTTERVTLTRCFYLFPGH
Caspase 1 (CASP1), sequence (Q96P20 whole entry R262W partner): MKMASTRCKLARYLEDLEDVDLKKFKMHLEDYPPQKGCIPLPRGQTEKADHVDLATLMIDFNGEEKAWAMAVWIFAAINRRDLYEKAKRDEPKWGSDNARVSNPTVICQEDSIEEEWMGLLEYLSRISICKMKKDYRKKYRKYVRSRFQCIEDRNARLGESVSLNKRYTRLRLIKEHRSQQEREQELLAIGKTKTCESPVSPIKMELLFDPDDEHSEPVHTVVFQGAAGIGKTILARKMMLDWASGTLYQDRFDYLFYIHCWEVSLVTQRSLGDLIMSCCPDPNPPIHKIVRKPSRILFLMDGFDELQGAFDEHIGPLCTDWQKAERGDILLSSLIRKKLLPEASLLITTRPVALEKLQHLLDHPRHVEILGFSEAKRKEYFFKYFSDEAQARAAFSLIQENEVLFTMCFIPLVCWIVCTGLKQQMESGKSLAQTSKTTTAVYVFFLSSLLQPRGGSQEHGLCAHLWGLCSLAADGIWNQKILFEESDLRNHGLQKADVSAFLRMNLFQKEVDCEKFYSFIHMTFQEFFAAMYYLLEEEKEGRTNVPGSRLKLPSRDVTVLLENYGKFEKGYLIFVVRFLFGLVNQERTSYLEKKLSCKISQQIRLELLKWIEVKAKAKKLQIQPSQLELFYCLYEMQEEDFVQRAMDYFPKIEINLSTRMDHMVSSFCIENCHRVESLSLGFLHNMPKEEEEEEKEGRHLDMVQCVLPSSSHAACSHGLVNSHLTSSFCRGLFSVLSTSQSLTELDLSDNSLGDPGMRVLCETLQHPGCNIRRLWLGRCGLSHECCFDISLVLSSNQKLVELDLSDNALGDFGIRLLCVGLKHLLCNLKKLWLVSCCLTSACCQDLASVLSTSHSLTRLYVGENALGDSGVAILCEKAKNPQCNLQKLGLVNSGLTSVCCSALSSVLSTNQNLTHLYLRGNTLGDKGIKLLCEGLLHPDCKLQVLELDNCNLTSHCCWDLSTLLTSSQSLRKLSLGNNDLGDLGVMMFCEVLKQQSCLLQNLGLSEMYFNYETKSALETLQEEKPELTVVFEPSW
Caspase 1 (CASP1), sequence (Q9ULZ3 whole entry partner): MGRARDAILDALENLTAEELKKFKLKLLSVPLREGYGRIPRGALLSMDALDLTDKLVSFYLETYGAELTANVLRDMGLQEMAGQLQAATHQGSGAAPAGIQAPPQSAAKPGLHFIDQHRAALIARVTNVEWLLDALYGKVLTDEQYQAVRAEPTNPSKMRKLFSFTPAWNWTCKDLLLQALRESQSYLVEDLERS

`CC(C)(C)[C@H](NC(=O)c1ccc(N)c(Cl)c1)C(=O)N1CCC[C@H]1C(=O)N[C@H](C=O)CC(=O)O` [VRT-043198] gave an IC50 of 4.66 µM.
